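Assay format: 96-well plates, 48-hour exposure. Abbreviation: GI50, concentration required for 50% inhibition of growth.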 Calls of active or inactive are those of the source. No stated cut-off is given here; in the data, active = GI50 up to about 1.1 µM and inactive = higher.
Tests used:
Assay in all cases: DTP human tumour cell line panel, 48 h
786-0 = test system: 786-0
A549 = test system: A549
CAKI-1 = test system: CAKI-1
HCC 2998 = test system: HCC 2998
HCT-15 = test system: HCT-15
HL-60 = test system: HL-60
IGROV-1 = test system: IGROV-1
KM12 = test system: KM12
NCI-H23 = test system: NCI-H23
OVCAR-4 = test system: OVCAR-4
OVCAR-5 = test system: OVCAR-5
SF-268 = test system: SF-268
SF-295 = test system: SF-295
SK-MEL-28 = test system: SK-MEL-28
SNB-19 = test system: SNB-19
SW-620 = test system: SW-620
UO-31 = test system: UO-31
LOX IMVI = test system: LOX IMVI
MDA-MB-231 = test system: MDA-MB-231

Structure (SMILES) | GI50 (786-0) | GI50 (A549) | GI50 (CAKI-1) | GI50 (HCC 2998) | GI50 (HCT-15) | GI50 (HL-60) | GI50 (IGROV-1) | GI50 (KM12) | GI50 (NCI-H23) | GI50 (OVCAR-4) | GI50 (OVCAR-5) | GI50 (SF-268) | GI50 (SF-295) | GI50 (SK-MEL-28) | GI50 (SNB-19) | GI50 (SW-620) | GI50 (UO-31) | GI50 (LOX IMVI) | GI50 (MDA-MB-231)
O=C1c2ccccc2-c2nc3ccc(O)cc3n21 | > 100 µM (inactive) | > 100 µM (inactive) | > 100 µM (inactive) | > 100 µM (inactive) | > 100 µM | > 100 µM (inactive) | > 100 µM (inactive) | > 100 µM (inactive) | > 100 µM (inactive) | > 100 µM (inactive) | > 100 µM (inactive) | > 100 µM (inactive) | > 100 µM (inactive) | > 100 µM (inactive) | > 100 µM (inactive) | > 100 µM (inactive) | > 100 µM (inactive) |  | 
CC(=O)Oc1cc(OC(C)=O)c2c(C)cc(=O)oc2c1 | > 100 µM (inactive) | > 100 µM (inactive) |  |  | > 100 µM |  | 95.7 µM (inactive) | > 100 µM (inactive) | > 100 µM (inactive) | > 100 µM (inactive) | > 100 µM (inactive) | > 100 µM (inactive) | > 100 µM (inactive) | > 100 µM (inactive) | > 100 µM (inactive) | > 100 µM (inactive) | 67.3 µM (inactive) | > 100 µM (inactive) | > 100 µM (inactive)
COC(=O)C1=C(CCC[C@H](C)O[Si](C)(C)C(C)(C)C)NC(=O)N2[C@@H](CCO)CC[C@H]12 | 14.5 µM (inactive) | 12.3 µM (inactive) | 17.2 µM (inactive) |  | 15 µM |  | 15.8 µM (inactive) | 18.3 µM (inactive) | 13.2 µM (inactive) | 16.5 µM (inactive) | 19.4 µM (inactive) | 14.6 µM (inactive) | 11.7 µM (inactive) | 18.5 µM (inactive) | 15.2 µM (inactive) | 20.1 µM (inactive) | 15.6 µM (inactive) | 16.9 µM (inactive) | 16.2 µM (inactive)
COc1ccc2c(c1)C1OCCNC1CC2 (centres undefined) | > 100 µM (inactive) | > 100 µM (inactive) | > 100 µM (inactive) |  | > 100 µM | > 100 µM (inactive) | > 100 µM (inactive) | > 100 µM (inactive) | > 100 µM (inactive) |  | > 100 µM (inactive) | > 100 µM (inactive) | > 100 µM (inactive) | > 100 µM (inactive) | > 100 µM (inactive) | > 100 µM (inactive) | > 100 µM (inactive) | > 100 µM (inactive) | > 100 µM (inactive)
N#Cc1cnc(-n2[nH]c3c(c2=O)CCCC3)[nH]c1=O | 49.2 µM (inactive) | 38.5 µM (inactive) | 39.2 µM (inactive) |  | 41.1 µM | 34.8 µM (inactive) | > 100 µM (inactive) | 21.8 µM (inactive) | 54.3 µM (inactive) | 83.9 µM (inactive) | 74.6 µM (inactive) | 46 µM (inactive) | 40.3 µM (inactive) | 55.2 µM (inactive) | > 100 µM (inactive) | 50 µM (inactive) | 38.5 µM (inactive) |  | 39.9 µM (inactive)
O=C(Cc1ccccc1)c1ccc2[nH]c(=O)oc2c1 | 87.3 µM (inactive) |  | 59.6 µM (inactive) |  | 58.9 µM | 50.4 µM (inactive) | 9.53 µM (inactive) | 19 µM (inactive) | 51.3 µM (inactive) |  | > 100 µM (inactive) | 16.5 µM (inactive) | 38.2 µM (inactive) | 28.6 µM (inactive) |  | 52.1 µM (inactive) |  | 52.1 µM (inactive) | 36.1 µM (inactive)
O=C(Nc1cccc([N+](=O)[O-])c1)c1nnn(-c2cccc([N+](=O)[O-])c2)c1O | > 100 µM (inactive) | > 100 µM (inactive) | > 100 µM (inactive) |  |  | > 100 µM (inactive) | > 100 µM (inactive) | > 100 µM (inactive) | > 100 µM (inactive) |  | > 100 µM (inactive) | > 100 µM (inactive) | > 100 µM (inactive) | > 100 µM (inactive) | > 100 µM (inactive) | > 100 µM (inactive) | 67.5 µM (inactive) | > 100 µM (inactive) | > 100 µM (inactive)

Source: ChEMBL document CHEMBL1201862, “PubChem BioAssay data set” (2004)
